According to patent US20170037028A1 (BAYER PHARMA AKTIENGESELLSCHAFT, priority 2013, published 2017):

Each molecule was assayed against T1, GLUT1 (Homo sapiens, UniProt P11166) (assay: Indirect measurement of GLUT1 activity by quantification of intracellular ATP levels (glucose induced ATP increase)). Conditions: read-out: IC50 regarding glucose induced ATP increase (GLUT1 inhibition).
T1 sequence (P11166 1-492): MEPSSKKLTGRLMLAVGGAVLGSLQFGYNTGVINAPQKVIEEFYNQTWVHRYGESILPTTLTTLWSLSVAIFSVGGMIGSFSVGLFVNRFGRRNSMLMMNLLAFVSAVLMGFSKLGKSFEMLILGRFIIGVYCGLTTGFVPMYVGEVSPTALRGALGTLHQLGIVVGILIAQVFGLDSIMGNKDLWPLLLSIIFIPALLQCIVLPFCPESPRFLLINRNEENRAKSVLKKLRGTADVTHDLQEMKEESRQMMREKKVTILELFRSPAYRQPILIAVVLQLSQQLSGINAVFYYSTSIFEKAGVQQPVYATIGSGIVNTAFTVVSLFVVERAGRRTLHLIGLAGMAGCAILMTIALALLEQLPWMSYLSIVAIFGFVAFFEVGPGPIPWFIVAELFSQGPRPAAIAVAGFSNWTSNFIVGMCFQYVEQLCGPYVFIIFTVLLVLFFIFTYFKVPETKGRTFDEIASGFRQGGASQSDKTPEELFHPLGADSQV
Type: cell-based
Design: endogenous in cells; host or cells: DLD1 or CHO-K1
In short: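 DLD1 or CHO-K1 cells were starved overnight in glucose-free medium with 1% FCS, then combined with an oxidative phosphorylation inhibitor. GLUT1 activity was read as glucose-induced ATP increase, GLUT2 as fructose-induced. Intracellular ATP was quantified by CellTiter-Glo luminescence.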

Compared with `Cc1c(NC(=O)c2cc(C(N)=O)nc3ccccc23)c(C(F)(F)F)nn1Cc1ccc(C#N)nc1` [Example 289, N^4-{1-[(6-cyanopyridin-3-yl)methyl]-5-methyl-3-(trifluoromethyl)-1H-pyrazol-4-yl}quinoline-2,4-dicarboxamide], `Cc1c(NC(=O)c2cc(C(N)=O)nc3ccccc23)c(C(F)(F)F)nn1Cc1ccc(F)cc1C#N` [Example 1659] is 4.6-fold lower in IC50: 21.5 nM for the first, 4.7 nM for the second. The second is the more potent here.

Going from `Cc1nn(Cc2cccc(F)c2)c(C)c1NC(=O)c1cc(C(F)(F)F)nc2ccc(Br)cc12` [Example 72, 6-bromo-N-[1-(3-fluorobenzyl)-3,5-dimethyl-1H-pyrazol-4-yl]-2-(trifluoromethyl)quinoline-4-carboxamide] to `Cc1nn(CCc2cccc(F)c2)c(C)c1NC(=O)c1cc(C(F)(F)F)nc2ccc(Br)cc12` [Example 1282], the IC50 rises from 177 nM to 6020 nM (34-fold). The first is the more potent here.

Going from `Cc1nn(Cc2ccc(C(=O)NCc3ccc(F)cc3)cc2)c(C)c1NC(=O)c1cc(C(F)(F)F)nc2ccc(Br)cc12` [Example 1119] to `Cc1nn(Cc2ccc(C(=O)Nc3cccc(Cl)c3)cc2)c(C)c1NC(=O)c1cc(C(F)(F)F)nc2ccc(Br)cc12` [Example 1066], the IC50 falls from 65.1 nM to 19.1 nM (3.4-fold). The second is the more potent here.

Compared with `Cc1nn(Cc2ccc(C(=O)NCc3cccnc3)cn2)c(C)c1NC(=O)c1cc(C(F)(F)F)nc2ccc(Br)cc12` [Example 1170], `Cc1nn(Cc2ccc(CC(=O)NCc3cccnc3)cc2)c(C)c1NC(=O)c1cc(C(F)(F)F)nc2ccc(Br)cc12` [Example 157, 6-bromo-N-[3,5-dimethyl-1-(4-{2-oxo-2-[(pyridin-3-ylmethyl)amino]ethyl}benzyl)-1H-pyrazol-4-yl]-2-(trifluoromethyl)quinoline-4-carboxamide] is 2.3-fold higher in IC50: 189 nM for the first, 437 nM for the second.

First: CC(C)c1c(NC(=O)c2cc(C(N)=O)nc3cc(F)ccc23)c(C(F)(F)F)nn1Cc1ccc(C#N)cc1 [Example 318, N^4-[1-(4-cyanobenzyl)-5-isopropyl-3-(trifluoromethyl)-1H-pyrazol-4-yl]-7-fluoroquinoline-2,4-dicarboxamide]
Second: Cc1nn(Cc2ccc(C#N)cc2)c(C(F)(F)F)c1NC(=O)c1cc(C(N)=O)nc2cc(F)ccc12 [Example 389, N^4-[1-(4-cyanobenzyl)-3-methyl-5-(trifluoromethyl)-1H-pyrazol-4-yl]-7-fluoroquinoline-2,4-dicarboxamide]
The IC50 of the first is 190-fold higher: 352 nM for the first, 1.9 nM for the second.

First: CCc1noc(Cn2nc(C(F)(F)F)c(NC(=O)c3cc(C(N)=O)nc4cc(F)c(Cl)cc34)c2C)n1 [Example 1544]
Second: CNC(=O)c1nc(Cn2nc(C(F)(F)F)c(NC(=O)c3cc(C(N)=O)nc4cc(F)ccc34)c2C)no1 [Example 1559]
The IC50 of the first is 4.6-fold lower: 15.7 nM for the first, 72.7 nM for the second.

First: Cc1nn(Cc2ccc(F)cc2)c(C)c1NC(=O)c1cc(C2CC2)nc2ccc(C(F)(F)F)cc12 [Example 79, 2-cyclopropyl-N-[1-(4-fluorobenzyl)-3,5-dimethyl-1H-pyrazol-4-yl]-6-(trifluoromethyl)quinoline-4-carboxamide]
Second: Cc1nn(Cc2ccc(F)cc2)c(C)c1NC(=O)c1cc(C2CC2)nc2ccc(F)cc12 [Example 10, 2-cyclopropyl-6-fluoro-N-[1-(4-fluorobenzyl)-3,5-dimethyl-1H-pyrazol-4-yl]quinoline-4-carboxamide]
The IC50 of the first is 35-fold higher: 225 nM for the first, 6.4 nM for the second.

Going from `COc1cc(C(=O)Nc2c(C)nn(Cc3ccccc3F)c2C)c2ccccc2n1` [Example 77, N-[1-(2-fluorobenzyl)-3,5-dimethyl-1H-pyrazol-4-yl]-2-methoxyquinoline-4-carboxamide] to `COc1cc(C(=O)Nc2c(C)nn(Cc3ccccc3)c2C)c2ccccc2n1` [Example 65, N-(1-benzyl-3,5-dimethyl-1H-pyrazol-4-yl)-2-methoxyquinoline-4-carboxamide], the IC50 falls from 204 nM to 133 nM (1.5-fold).

First: Cc1c(NC(=O)c2cc(C(N)=O)nc3cccc(F)c23)c(C(F)(F)F)nn1Cc1c(F)cc(C#N)cc1F [Example 397, N^4-[1-(4-cyano-2,6-difluorobenzyl)-5-methyl-3-(trifluoromethyl)-1H-pyrazol-4-yl]-5-fluoroquinoline-2,4-dicarboxamide]
Second: COc1cccc(Cn2nc(C(F)(F)F)c(NC(=O)c3cc(C(N)=O)nc4cc(F)ccc34)c2C)c1 [Example 1447]
The IC50 of the first is 3.1-fold lower: 7.5 nM for the first, 23.2 nM for the second. The first is the more potent here.

Going from `Cc1cc(Cn2nc(C)c(NC(=O)c3cc(C(N)=O)nc4cc(F)ccc34)c2C)ccc1C#N` [Example 1698] to `Cc1nn(Cc2ccc(C(N)=O)cc2)c(C)c1NC(=O)c1cc(C(N)=O)nc2cc(F)ccc12` [Example 1424], the IC50 rises from 1.2 nM to 69.1 nM (58-fold). The first is the more potent here.

Compared with `CCc1nn(Cc2ccc(C#N)cc2)c(CC)c1NC(=O)c1cc(C(N)=O)nc2cc(F)c(Cl)cc12` [Example 311, 6-chloro-N^4-[1-(4-cyanobenzyl)-3,5-diethyl-1H-pyrazol-4-yl]-7-fluoroquinoline-2,4-dicarboxamide], `Cc1nn(Cc2ccc(F)cc2)c(C)c1NC(=O)c1cc(C(N)=O)nc2cc(F)c(F)cc12` [Example 120, 6,7-difluoro-N^4-[1-(4-fluorobenzyl)-3,5-dimethyl-1H-pyrazol-4-yl]quinoline-2,4-dicarboxamide] is 4-fold lower in IC50: 6 nM for the first, 1.5 nM for the second. The second is the more potent here.

`COc1c(C)nc2ccccc2c1C(=O)Nc1c(C)nn(Cc2ccc(F)cc2)c1C` [Example 95, N-[1-(4-fluorobenzyl)-3,5-dimethyl-1H-pyrazol-4-yl]-3-methoxy-2-methylquinoline-4-carboxamide] and `COc1cc(C(=O)Nc2c(C)nn(CCc3ccc(F)cc3)c2C)c2ccccc2n1` [Example 1181] are within 1.5-fold of each other in IC50: 309 nM for the first, 237 nM for the second.

Going from `Cc1c(NC(=O)c2cc(C(N)=O)nc3cc(F)ccc23)c(C(F)(F)F)nn1Cc1nc2ccccc2o1` [Example 1678] to `Cc1c(NC(=O)c2cc(C(N)=O)nc3ccccc23)c(C(F)(F)F)nn1Cc1ncco1` [Example 1540], the IC50 rises from 57.7 nM to 275 nM (4.8-fold). The first is the more potent here.

Compared with `Cc1ccc2nc(C)cc(C(=O)Nc3c(C)nn(Cc4cc(F)cc(F)c4)c3C)c2c1` [Example 1296], `Cc1nn(Cc2ccc(F)c(F)c2)c(C)c1NC(=O)c1cc(C2CC2)nc2ccc(F)cc12` [Example 162, 2-cyclopropyl-N-[1-(3,4-difluorobenzyl)-3,5-dimethyl-1H-pyrazol-4-yl]-6-fluoroquinoline-4-carboxamide] is 450-fold lower in IC50: 11100 nM for the first, 24.8 nM for the second. The second is the more potent here.

Compared with `Cc1c(NC(=O)c2cc(C(F)(F)F)nc3ccc(Br)cc23)c(C(F)(F)F)nn1Cc1ccc(C(=O)NCCN(C)C)cn1` [Example 1177], `Cc1c(NC(=O)c2cc(C(F)(F)F)nc3ccc(Br)cc23)c(C(F)(F)F)nn1Cc1ccncc1C#N` [Example 1105] is 4.6-fold lower in IC50: 221 nM for the first, 48.2 nM for the second. The second is the more potent here.

First: CNC(=O)c1nc(Cn2nc(C)c(NC(=O)c3cc(C(N)=O)nc4ccccc34)c2C)no1 [Example 1509]
Second: Cc1nn(Cc2ccccc2C#N)c(C)c1NC(=O)c1cc(C(N)=O)nc2ccccc12 [Example 232, N^4-[1-(2-cyanobenzyl)-3,5-dimethyl-1H-pyrazol-4-yl]quinoline-2,4-dicarboxamide]
The IC50 of the first is 2.3-fold higher: 16.3 nM for the first, 7 nM for the second. The second is the more potent here.

Going from `Cc1nn(CC(=O)N(C)c2ccc(F)cc2)c(C)c1NC(=O)c1cc(C(N)=O)nc2ccccc12` [Example 1693] to `CC(=O)c1cccc(Cn2nc(C)c(NC(=O)c3cc(C(N)=O)nc4cccc(F)c34)c2C)c1` [Example 1624], the IC50 falls from 43.6 nM to 18.7 nM (2.3-fold). The second is the more potent here.

Going from `Cc1nn(Cc2ccc(C#N)cc2)c(C)c1NC(=O)c1cc(C(F)(F)F)nc2c(Cl)cc(Cl)cc12` [Example 11, 6,8-dichloro-N-[1-(4-cyanobenzyl)-3,5-dimethyl-1H-pyrazol-4-yl]-2-(trifluoromethyl)quinoline-4-carboxamide] to `COc1cc(C(=O)Nc2c(C(F)(F)F)nn(Cc3ccc(C#N)cc3)c2C)c2ccccc2n1` [Example 1075], the IC50 rises from 6.6 nM to 22.5 nM (3.4-fold).

First: Cc1ccc2nc(C)cc(C(=O)Nc3c(C)nn(CC4CCOCC4)c3C)c2c1 [Example 1176]
Second: Cc1nn(Cc2ccc(C(=O)N3CCOCC3)cn2)c(C)c1NC(=O)c1cc(C(F)(F)F)nc2ccc(Br)cc12 [Example 1234]
The IC50 of the first is 5.7-fold lower: 208 nM for the first, 1180 nM for the second.

First: COc1cc(C(=O)Nc2c(C(F)(F)F)nn(Cc3ccncc3)c2C)c2ccccc2n1 [Example 1366]
Second: Cc1c(NC(=O)c2cc(C(N)=O)nc3ccccc23)c(C(F)(F)F)nn1CC(=O)Nc1ccccc1O [Example 1671]
The IC50 of the first is 3.9-fold lower: 38.1 nM for the first, 149 nM for the second. The first is the more potent here.

First: CCOC(=O)c1c(NC(=O)c2cc(C(F)(F)F)nc3ccc(Br)cc23)c(C)nn1Cc1ccc(F)cc1 [Example 1255]
Second: Cc1nn(Cc2ccc(C(=O)NCC(N)=O)cc2)c(C)c1NC(=O)c1cc(C(F)(F)F)nc2ccc(Br)cc12 [Example 1223]
The IC50 of the first is 2.3-fold higher: 2010 nM for the first, 891 nM for the second. The second is the more potent here.

First: Cc1nn(C(C)CCc2ccc(F)cc2)c(C)c1NC(=O)c1cc(C(F)(F)F)nc2ccc(Br)cc12 (racemic) [Example 1378]
Second: Cc1nn(Cc2ccc(C(=O)NCCOCCO)cc2)c(C)c1NC(=O)c1cc(C(F)(F)F)nc2ccc(Br)cc12 [Example 1144]
The IC50 of the first is 5.6-fold higher: 643 nM for the first, 114 nM for the second. The second is the more potent here.

First: CC(=O)c1cccc(Cn2nc(C)c(NC(=O)c3cc(C(N)=O)nc4cc(F)c(Cl)cc34)c2C)c1 [Example 1623]
Second: Cc1c(NC(=O)c2cc(C(F)(F)F)nc3cc(F)c(F)cc23)c(C(F)(F)F)nn1Cc1ccc(F)cc1 [Example 193, 6,7-difluoro-N-[1-(4-fluorobenzyl)-5-methyl-3-(trifluoromethyl)-1H-pyrazol-4-yl]-2-(trifluoromethyl)quinoline-4-carboxamide]
The IC50 of the first is 270-fold lower: 0.8 nM for the first, 215 nM for the second.
